# Key:
# [1] = target: Ribosomal protein S6 kinase alpha-1 (Homo sapiens) (UniProt Q15418); assay: Inhibition of RSK1 at 1 uM
# [2] = target: Testis-specific serine/threonine-protein kinase 2 (Homo sapiens) (UniProt Q96PF2); assay: Inhibition of TSSK2 at 1 uM
# [3] = target: Tyrosine-protein kinase receptor TYRO3 (Homo sapiens) (UniProt Q06418); assay: Inhibition of TYRO3 at 1 uM
# [4] = target: Receptor-type tyrosine-protein kinase FLT3 (Homo sapiens, UniProt P36888); assay: Inhibition of FLT3
# [5] = Inhibition of PKA
# [6] = target: Proto-oncogene tyrosine-protein kinase Src (Homo sapiens, UniProt P12931); assay: Inhibition of SRC
# [7] = target: Vascular endothelial growth factor receptor 2 (Homo sapiens, UniProt P35968); assay: Inhibition of KDR
# [8] = target: Mitogen-activated protein kinase kinase kinase 8 (Homo sapiens, UniProt P41279); assay: Inhibition of COT
# [9] = target: Serine/threonine-protein kinase PLK1 (Homo sapiens, UniProt P53350); assay: Inhibition of PLK1
# Chain of Serine/threonine-protein kinase PLK1 (P53350 whole entry): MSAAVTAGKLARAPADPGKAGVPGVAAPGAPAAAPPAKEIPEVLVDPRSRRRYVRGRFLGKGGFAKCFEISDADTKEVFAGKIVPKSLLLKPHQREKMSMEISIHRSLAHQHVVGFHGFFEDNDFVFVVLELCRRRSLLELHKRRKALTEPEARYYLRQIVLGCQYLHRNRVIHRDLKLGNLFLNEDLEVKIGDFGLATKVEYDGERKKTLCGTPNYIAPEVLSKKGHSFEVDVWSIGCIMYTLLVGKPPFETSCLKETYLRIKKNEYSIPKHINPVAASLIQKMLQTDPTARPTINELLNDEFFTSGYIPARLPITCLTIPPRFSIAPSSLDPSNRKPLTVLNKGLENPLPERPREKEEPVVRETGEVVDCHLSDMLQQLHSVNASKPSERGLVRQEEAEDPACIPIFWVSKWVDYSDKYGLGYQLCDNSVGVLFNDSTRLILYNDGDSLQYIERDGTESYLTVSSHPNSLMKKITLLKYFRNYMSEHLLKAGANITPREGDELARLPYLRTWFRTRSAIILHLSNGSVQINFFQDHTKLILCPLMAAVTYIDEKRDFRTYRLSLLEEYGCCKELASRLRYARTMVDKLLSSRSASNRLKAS
# [10] = target: Tyrosine-protein kinase ZAP-70 (Homo sapiens, UniProt P43403); assay: Inhibition of ZAP70
# [11] = target: Inhibitor of nuclear factor kappa-B kinase subunit epsilon (Homo sapiens, UniProt Q14164); assay: Inhibition of IKKi
# Focal adhesion kinase 1 = Focal adhesion kinase 1 (Homo sapiens, UniProt Q05397); assay: Inhibition of FAK
# [12] = target: Tyrosine-protein kinase ABL1 (Homo sapiens) (UniProt P00519); assay: Inhibition of ABL1 at 1 uM
# [13] = target: RAC-alpha serine/threonine-protein kinase (Homo sapiens) (UniProt P31749); assay: Inhibition of AKT1 at 1 uM
# [14] = target: RAC-beta serine/threonine-protein kinase (Homo sapiens) (UniProt P31751); assay: Inhibition of AKT2 at 1 uM
# [15] = target: Serine/threonine-protein kinase BRSK2 (Homo sapiens) (UniProt Q8IWQ3); assay: Inhibition of BRSK2 at 1 uM
# Chain of Serine/threonine-protein kinase BRSK2 (Homo sapiens) (Q8IWQ3 whole entry): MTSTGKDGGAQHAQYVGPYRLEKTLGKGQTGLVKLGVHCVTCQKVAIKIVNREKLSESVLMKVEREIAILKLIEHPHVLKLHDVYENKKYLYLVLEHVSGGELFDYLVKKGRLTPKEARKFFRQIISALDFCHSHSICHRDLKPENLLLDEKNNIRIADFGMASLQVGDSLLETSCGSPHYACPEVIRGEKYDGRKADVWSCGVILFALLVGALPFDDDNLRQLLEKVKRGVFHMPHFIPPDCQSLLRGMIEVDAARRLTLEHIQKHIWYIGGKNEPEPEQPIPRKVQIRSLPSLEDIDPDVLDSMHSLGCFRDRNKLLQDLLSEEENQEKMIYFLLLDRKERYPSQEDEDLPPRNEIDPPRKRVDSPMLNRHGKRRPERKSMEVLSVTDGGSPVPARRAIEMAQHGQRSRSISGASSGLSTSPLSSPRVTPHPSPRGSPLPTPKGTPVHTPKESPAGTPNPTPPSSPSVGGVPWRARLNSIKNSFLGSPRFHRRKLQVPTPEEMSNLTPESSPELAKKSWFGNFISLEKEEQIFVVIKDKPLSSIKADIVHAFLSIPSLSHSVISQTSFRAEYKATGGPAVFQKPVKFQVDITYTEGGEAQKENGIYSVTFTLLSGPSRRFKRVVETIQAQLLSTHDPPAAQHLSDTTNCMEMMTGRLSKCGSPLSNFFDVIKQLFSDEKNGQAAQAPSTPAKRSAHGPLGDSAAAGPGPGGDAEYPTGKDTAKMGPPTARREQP
# [16] = target: Calcium/calmodulin-dependent protein kinase type II subunit alpha (Homo sapiens) (UniProt Q9UQM7); assay: Inhibition of CAMK2 at 2 uM
# [17] = target: Cyclin-dependent kinase 1 (Homo sapiens) (UniProt P06493); assay: Inhibition of CDK1 at 1 uM
# [18] = target: Casein kinase I isoform alpha (Homo sapiens) (UniProt P48729); assay: Inhibition of CK1 at 2 uM
# [19] = target: Dual specificity tyrosine-phosphorylation-regulated kinase 1A (Homo sapiens) (UniProt Q13627); assay: Inhibition of DYRK1A at 1 uM
# [20] = target: Ephrin type-B receptor 2 (Homo sapiens) (UniProt P29323); assay: Inhibition of EPH-B2 at 1 uM
# [21] = target: Fibroblast growth factor receptor 3 (Homo sapiens) (UniProt P22607); assay: Inhibition of FGFR3 at 1 uM
# Chain of Fibroblast growth factor receptor 3 (Homo sapiens) (P22607 23-806 limits assumed): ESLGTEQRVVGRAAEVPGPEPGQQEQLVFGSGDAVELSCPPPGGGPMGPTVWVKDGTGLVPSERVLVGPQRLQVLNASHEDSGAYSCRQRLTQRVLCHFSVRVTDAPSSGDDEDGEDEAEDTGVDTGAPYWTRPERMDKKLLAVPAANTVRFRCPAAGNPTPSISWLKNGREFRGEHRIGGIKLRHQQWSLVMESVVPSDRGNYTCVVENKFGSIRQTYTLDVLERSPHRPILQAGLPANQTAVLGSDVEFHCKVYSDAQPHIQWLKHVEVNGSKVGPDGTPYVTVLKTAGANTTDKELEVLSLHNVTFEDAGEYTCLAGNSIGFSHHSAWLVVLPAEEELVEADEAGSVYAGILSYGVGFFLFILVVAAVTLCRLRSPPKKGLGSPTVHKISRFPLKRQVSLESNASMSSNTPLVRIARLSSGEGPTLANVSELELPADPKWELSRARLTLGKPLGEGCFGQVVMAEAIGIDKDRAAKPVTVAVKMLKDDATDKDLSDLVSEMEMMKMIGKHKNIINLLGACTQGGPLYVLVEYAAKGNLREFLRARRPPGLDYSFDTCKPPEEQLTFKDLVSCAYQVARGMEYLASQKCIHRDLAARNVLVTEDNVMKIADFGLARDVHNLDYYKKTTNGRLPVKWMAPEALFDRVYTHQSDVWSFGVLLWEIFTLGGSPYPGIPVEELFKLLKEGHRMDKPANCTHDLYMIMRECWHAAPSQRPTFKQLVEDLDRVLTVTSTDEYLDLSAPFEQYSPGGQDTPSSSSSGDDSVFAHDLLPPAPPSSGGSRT
# [22] = target: Fibroblast growth factor receptor 4 (Homo sapiens) (UniProt P22455); assay: Inhibition of FGFR4 at 1 uM
# [23] = target: Vascular endothelial growth factor receptor 1 (Homo sapiens) (UniProt P17948); assay: Inhibition of FLT-1 at 1 uM
# [24] = target: Vascular endothelial growth factor receptor 3 (Homo sapiens) (UniProt P35916); assay: Inhibition of FLT-4 at 1 uM
# [25] = target: Tyrosine-protein kinase Fyn (Homo sapiens) (UniProt P06241); assay: Inhibition of FYN at 2 uM
# Chain of Tyrosine-protein kinase Fyn (Homo sapiens) (P06241 2-537 limits assumed): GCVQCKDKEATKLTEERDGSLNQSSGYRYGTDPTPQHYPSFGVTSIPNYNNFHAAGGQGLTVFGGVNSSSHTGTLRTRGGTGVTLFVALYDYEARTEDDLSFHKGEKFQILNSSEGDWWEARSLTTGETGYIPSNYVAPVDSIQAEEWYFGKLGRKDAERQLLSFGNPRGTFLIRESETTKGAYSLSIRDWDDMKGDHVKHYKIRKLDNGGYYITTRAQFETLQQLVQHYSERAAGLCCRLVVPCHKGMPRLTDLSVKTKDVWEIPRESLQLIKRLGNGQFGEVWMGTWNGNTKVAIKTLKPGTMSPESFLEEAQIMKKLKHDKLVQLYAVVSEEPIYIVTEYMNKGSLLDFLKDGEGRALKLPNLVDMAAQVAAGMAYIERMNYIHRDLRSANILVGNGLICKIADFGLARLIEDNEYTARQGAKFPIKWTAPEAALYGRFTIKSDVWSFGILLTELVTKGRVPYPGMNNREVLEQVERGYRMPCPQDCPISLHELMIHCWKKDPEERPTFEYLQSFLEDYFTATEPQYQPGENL
# [26] = target: Tyrosine-protein kinase HCK (Homo sapiens) (UniProt P08631); assay: Inhibition of HCK at 1 uM
# [27] = target: Mast/stem cell growth factor receptor Kit (Homo sapiens) (UniProt P10721); assay: Inhibition of KIT at 1 uM
# [28] = target: MAP kinase-activated protein kinase 3 (Homo sapiens) (UniProt Q16644); assay: Inhibition of MAPKAPK3 at 1 uM
# Chain of MAP kinase-activated protein kinase 3 (Homo sapiens) (Q16644 whole entry, looked up): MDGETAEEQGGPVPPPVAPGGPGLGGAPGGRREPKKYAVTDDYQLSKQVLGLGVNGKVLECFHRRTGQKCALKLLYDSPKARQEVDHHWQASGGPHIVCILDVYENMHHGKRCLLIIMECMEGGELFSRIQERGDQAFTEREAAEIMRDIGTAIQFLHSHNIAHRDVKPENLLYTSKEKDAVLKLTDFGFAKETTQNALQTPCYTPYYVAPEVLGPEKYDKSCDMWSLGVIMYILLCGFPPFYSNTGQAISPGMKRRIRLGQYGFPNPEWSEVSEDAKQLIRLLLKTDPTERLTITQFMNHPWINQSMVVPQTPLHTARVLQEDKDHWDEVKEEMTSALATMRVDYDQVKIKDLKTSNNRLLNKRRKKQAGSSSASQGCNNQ
# [29] = target: Ribosomal protein S6 kinase alpha-5 (Homo sapiens) (UniProt O75582); assay: Inhibition of MSK1 at 1 uM
# [30] = target: Ribosomal protein S6 kinase alpha-4 (Homo sapiens) (UniProt O75676); assay: Inhibition of MSK2 at 1 uM
# [31] = target: Serine/threonine-protein kinase 4 (Homo sapiens) (UniProt Q13043); assay: Inhibition of MST1 at 1 uM
# [32] = target: Mitogen-activated protein kinase 13 (Homo sapiens) (UniProt O15264); assay: Inhibition of P38delta at 2 uM
# Chain of Mitogen-activated protein kinase 13 (Homo sapiens) (O15264 whole entry): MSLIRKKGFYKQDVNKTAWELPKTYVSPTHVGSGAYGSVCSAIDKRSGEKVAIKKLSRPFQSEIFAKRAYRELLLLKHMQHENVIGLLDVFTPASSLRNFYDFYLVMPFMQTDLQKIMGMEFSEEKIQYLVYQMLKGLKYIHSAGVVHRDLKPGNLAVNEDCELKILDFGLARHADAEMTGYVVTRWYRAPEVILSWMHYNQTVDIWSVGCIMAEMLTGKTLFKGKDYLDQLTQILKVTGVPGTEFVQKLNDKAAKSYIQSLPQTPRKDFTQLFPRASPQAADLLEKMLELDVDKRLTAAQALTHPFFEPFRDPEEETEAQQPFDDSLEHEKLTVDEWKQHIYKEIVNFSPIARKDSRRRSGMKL
# [33] = target: Mitogen-activated protein kinase 12 (Homo sapiens) (UniProt P53778); assay: Inhibition of P38gamma at 2 uM
# [34] = target: Serine/threonine-protein kinase PAK 2 (Homo sapiens) (UniProt Q13177); assay: Inhibition of PAK2 at 1 uM
# [35] = target: Serine/threonine-protein kinase PAK 3 (Homo sapiens) (UniProt O75914); assay: Inhibition of PAK3 at 1 uM
# [36] = target: Serine/threonine-protein kinase pim-1 (Homo sapiens) (UniProt P11309); assay: Inhibition of PIM1 at 1 uM
# [37] = target: Serine/threonine-protein kinase pim-2 (Homo sapiens) (UniProt Q9P1W9); assay: Inhibition of PIM2 at 1 uM
# [38] = target: Protein kinase C beta type (Homo sapiens) (UniProt P05771); assay: Inhibition of PKCbeta1 at 1 uM
# Chain of Protein kinase C beta type (Homo sapiens) (P05771 2-671 limits assumed): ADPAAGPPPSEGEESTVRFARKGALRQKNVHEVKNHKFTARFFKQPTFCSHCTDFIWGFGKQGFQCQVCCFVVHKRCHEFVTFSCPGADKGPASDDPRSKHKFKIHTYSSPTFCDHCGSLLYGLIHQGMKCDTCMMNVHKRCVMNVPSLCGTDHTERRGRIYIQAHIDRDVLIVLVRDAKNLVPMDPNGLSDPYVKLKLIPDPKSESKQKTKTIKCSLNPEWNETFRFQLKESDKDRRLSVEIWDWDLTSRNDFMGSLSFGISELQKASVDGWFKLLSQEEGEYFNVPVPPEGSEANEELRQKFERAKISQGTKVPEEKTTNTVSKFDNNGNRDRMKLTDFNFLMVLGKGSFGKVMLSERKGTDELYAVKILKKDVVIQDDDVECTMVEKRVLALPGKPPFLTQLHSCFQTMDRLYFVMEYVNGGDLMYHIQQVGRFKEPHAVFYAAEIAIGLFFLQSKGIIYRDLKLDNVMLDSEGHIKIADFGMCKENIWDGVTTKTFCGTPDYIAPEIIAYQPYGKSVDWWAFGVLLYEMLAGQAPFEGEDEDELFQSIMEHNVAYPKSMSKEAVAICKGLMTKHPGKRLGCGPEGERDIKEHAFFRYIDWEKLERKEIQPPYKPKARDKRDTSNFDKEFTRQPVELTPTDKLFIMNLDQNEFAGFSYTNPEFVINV
# [39] = target: Protein kinase C eta type (Homo sapiens) (UniProt P24723); assay: Inhibition of PKCeta at 1 uM
# [40] = target: Protein kinase C beta type (Homo sapiens) (UniProt P05771); assay: Inhibition of PKCbeta2 at 2 uM
# [41] = target: cAMP-dependent protein kinase catalytic subunit PRKX (Homo sapiens) (UniProt P51817); assay: Inhibition of PRKX at 1 uM
# [42] = target: Rho-associated protein kinase 2 (Homo sapiens) (UniProt O75116); assay: Inhibition of ROCK 2 at 2 uM
# [43] = Inhibition of GSK3
# [44] = Solubility in pH 7.4 buffer; type: physicochemical
# [45] = Clearance in rat at 3 mg/kg, iv; type: ADME, organism-based; design: dose 3 mg/kg, route intravenous; details: in vivo
# [46] = Half life in rat at 3 mg/kg, iv; type: ADME, organism-based; design: dose 3 mg/kg, route intravenous; details: in vivo
# [47] = Plasma concentration in rat at 10 mg/kg, po after 4 hrs; type: ADME, organism-based; design: dose 10 mg/kg, route oral
# [48] = Plasma concentration in rat at 10 mg/kg, po after 8 hrs; type: ADME, organism-based; design: dose 10 mg/kg, route oral
# [49] = Volume of distribution at steady state in mouse at 5 mg/kg, iv; type: ADME, organism-based; design: dose 5 mg/kg, route intravenous; details: in vivo, read-out: Vdss
# [50] = Plasma concentration in mouse at 5 mg/kg, iv after 4 hrs; type: ADME, organism-based; design: dose 5 mg/kg, route intravenous
# [51] = target: Inhibitor of nuclear factor kappa-B kinase subunit alpha (Homo sapiens) (UniProt O15111); details: 2 uM
# Description: Inhibition of IKKalpha at 2 uM
# [52] = target: Inhibitor of nuclear factor kappa-B kinase subunit beta (Homo sapiens) (UniProt O14920); details: 2 uM
# Description: Inhibition of IKK-beta at 2 uM
# Chain of Tyrosine-protein kinase receptor TYRO3 (Homo sapiens) (Q06418 whole entry): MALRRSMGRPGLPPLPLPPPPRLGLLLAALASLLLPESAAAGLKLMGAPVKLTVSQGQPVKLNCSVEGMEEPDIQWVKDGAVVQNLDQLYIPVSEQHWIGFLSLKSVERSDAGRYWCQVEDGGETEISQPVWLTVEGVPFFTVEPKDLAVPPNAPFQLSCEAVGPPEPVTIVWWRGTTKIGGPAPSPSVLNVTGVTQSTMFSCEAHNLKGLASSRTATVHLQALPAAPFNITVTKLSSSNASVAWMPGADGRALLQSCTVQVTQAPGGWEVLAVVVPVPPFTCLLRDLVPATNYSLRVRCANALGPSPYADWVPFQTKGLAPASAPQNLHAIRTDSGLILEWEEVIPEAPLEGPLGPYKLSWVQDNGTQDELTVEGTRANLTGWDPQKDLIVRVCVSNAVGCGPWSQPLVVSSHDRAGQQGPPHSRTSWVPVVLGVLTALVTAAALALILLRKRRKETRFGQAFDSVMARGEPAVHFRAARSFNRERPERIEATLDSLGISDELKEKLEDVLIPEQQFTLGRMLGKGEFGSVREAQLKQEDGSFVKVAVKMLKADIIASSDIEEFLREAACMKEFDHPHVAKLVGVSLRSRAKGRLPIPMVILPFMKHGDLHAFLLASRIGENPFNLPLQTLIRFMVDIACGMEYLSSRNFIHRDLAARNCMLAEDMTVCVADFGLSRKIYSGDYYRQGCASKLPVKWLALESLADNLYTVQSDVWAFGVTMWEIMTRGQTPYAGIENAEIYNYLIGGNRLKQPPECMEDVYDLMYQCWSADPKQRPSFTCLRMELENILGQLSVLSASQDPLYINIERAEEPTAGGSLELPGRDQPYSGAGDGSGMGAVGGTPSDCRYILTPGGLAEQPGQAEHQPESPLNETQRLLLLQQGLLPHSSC
smiles,measurement,setting,value
Cc1cnc(Nc2ccc(F)cc2Cl)nc1-c1c[nH]c(C(=O)N[C@H](CO)c2cccc(Cl)c2)c1,inhibition,[1],4%
same,inhibition,[2],3%
same,inhibition,[3],0%
same,Ki,[4],1.4 µM
same,Ki,[5],> 4 µM
same,Ki,[6],> 4 µM
same,Ki,[7],> 4 µM
same,Ki,[8],> 4 µM
same,Ki,[9],> 4 µM
same,Ki,[10],> 4 µM
same,Ki,[11],> 5 µM
same,Ki,Focal adhesion kinase 1,> 10 µM
same,inhibition,[12],3%
same,inhibition,[13],0%
same,inhibition,[14],0%
same,inhibition,[15],2%
same,inhibition,[16],1%
same,inhibition,[17],7%
same,inhibition,[18],25%
same,inhibition,[19],3%
same,inhibition,[20],0%
same,inhibition,[21],8%
same,inhibition,[22],0.3%
same,inhibition,[23],0%
same,inhibition,[24],8%
same,inhibition,[25],11%
same,inhibition,[26],3%
same,inhibition,[27],8%
same,inhibition,[28],5%
same,inhibition,[29],7%
same,inhibition,[30],6%
same,inhibition,[31],4%
same,inhibition,[32],54%
same,inhibition,[33],56%
same,inhibition,[34],0%
same,inhibition,[35],3%
same,inhibition,[36],0%
same,inhibition,[37],3%
same,inhibition,[38],4%
same,inhibition,[39],2%
same,inhibition,[40],4%
same,inhibition,[41],3%
same,inhibition,[42],57%
same,Ki,[43],0.395 µM
same,solubility,[44],10 µM
same,clearance,[45],24 mL/min/kg
same,half-life,[46],3.2 h
same,concentration at 4 h,[47],329 ng/mL
same,concentration at 8 h,[48],267 ng/mL
same,Vd,[49],5.6 L/kg
same,concentration at 4 h,[50],79 ng/mL
same,inhibition,[51],0%
same,inhibition,[52],8%

# Reference: ChEMBL document CHEMBL1154622, “Structure-guided design of potent and selective pyrimidylpyrrole inhibitors of extracellular signal-regulated kinase (ERK) using conformational control” (J Med Chem, 2009)
